For 27 compounds, IC50 results are on record in ChEMBL document CHEMBL1156928, “Design of novel nicotinamides as potent and selective monoamine oxidase a inhibitors” (Bioorg Med Chem, 2010).

The target of experiment [1] is T1, Amine oxidase [flavin-containing] B (Rattus norvegicus, UniProt P19643).
T1 sequence (P19643 whole entry): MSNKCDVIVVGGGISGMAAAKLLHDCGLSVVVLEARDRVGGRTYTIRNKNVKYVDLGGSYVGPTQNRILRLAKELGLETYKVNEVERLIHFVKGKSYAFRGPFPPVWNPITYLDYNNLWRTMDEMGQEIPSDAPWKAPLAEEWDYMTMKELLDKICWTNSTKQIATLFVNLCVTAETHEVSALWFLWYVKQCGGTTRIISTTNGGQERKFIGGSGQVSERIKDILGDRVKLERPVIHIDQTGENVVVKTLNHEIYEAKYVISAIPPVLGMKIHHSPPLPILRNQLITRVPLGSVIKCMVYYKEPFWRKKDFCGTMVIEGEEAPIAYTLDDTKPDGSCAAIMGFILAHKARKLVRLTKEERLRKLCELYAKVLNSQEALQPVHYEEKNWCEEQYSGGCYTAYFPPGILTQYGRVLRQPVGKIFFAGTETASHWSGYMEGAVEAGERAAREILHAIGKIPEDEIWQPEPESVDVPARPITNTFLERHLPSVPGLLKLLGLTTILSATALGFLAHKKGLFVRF
The experiment is described as follows: Inhibition of MAOB in Sprague-Dawley rat brain mitochondria using kynuramine substrate by fluorimetry.

In experiment [2] the target is T2, Amine oxidase [flavin-containing] A (Rattus norvegicus, UniProt P21396).
T2 sequence (P21396 whole entry): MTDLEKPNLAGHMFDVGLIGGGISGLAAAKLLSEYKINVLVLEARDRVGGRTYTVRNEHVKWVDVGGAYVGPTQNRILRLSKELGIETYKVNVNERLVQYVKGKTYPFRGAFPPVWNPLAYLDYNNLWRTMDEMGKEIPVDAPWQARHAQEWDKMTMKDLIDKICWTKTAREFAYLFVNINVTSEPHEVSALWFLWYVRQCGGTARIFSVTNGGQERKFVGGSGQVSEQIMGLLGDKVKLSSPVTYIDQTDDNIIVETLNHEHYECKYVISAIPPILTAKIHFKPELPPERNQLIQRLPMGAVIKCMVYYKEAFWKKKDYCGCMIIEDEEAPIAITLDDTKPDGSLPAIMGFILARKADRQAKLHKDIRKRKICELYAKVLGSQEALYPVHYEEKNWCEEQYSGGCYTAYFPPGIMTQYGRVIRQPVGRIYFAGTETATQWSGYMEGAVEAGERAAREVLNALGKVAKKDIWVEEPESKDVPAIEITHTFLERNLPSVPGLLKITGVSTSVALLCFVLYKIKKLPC
The experiment is described as follows: Inhibition of MAOA in Sprague-Dawley rat brain mitochondria using kynuramine substrate by fluorimetry.

Structures are written as SMILES.

Take `O=C(NCCN1CCOCC1)c1cccnc1`: the IC50 (as a rule, the midpoint of a concentration-inhibition curve) was greater than 100 µM in experiment [1] and 68 µM in experiment [2]. Taken in the same sequence, the figures for `Cc1ccc(C(=O)NCCN2CCOCC2)cn1` were greater than 100 µM and 86 µM. Taken in the same sequence, the figures for `O=C(NCCN1CCOCC1)c1ccc(=O)[nH]c1` were greater than 100 µM and 0.43 µM. As for `O=C(NCCN1CCOCC1)c1ccc(Cl)nc1`, the IC50 in experiment [1] came to 34 µM; in experiment [2] it was 0.18 µM. Taken in the same sequence, the figures for `O=C(NCCN1CCOCC1)c1cccnc1Cl` were 1.8 µM and 2.6 µM. Taken in the same sequence, the figures for `O=C(NCCN1CCOCC1)c1cnc(O)c(Cl)c1` were 26 µM and 0.045 µM.

On to `O=C(NCCN1CCOCC1)c1ccc(F)nc1`, for which the IC50 was greater than 100 µM in experiment [1] and 15 µM in experiment [2]. Turning to `O=C(NCCCN1CCOCC1)c1cccnc1`, the IC50 in experiment [1] and in experiment [2] was greater than 100 µM in each case.

In the case of `Cc1ccc(C(=O)NCCN2CCOCC2)c(Cl)n1`, the figures for the IC50 in experiment [1] and in experiment [2] were greater than 100 µM and 28 µM, respectively.

For the compound `O=C(NCCCN1CCOCC1)c1cnccc1Cl`, the IC50 turned out to be 53 µM in experiment [1] and 7.5 µM in experiment [2]. Taken in the same sequence, the figures for `O=C(NCCCN1CCOCC1)c1cccnc1Cl` were 6.5 µM and 9.4 µM.

For the compound `Cc1ccc(C(=O)NCCCN2CCOCC2)c(Cl)n1`, the IC50 in experiment [1] and in experiment [2] was greater than 100 µM each time.

On to `O=C(NCCCN1CCOCC1)c1ccc(F)nc1`, for which the IC50 in experiment [1] is greater than 100 µM; in experiment [2] it was 80 µM. Taken in the same sequence, the figures for `O=C(NCCCN1CCOCC1)c1ccc(O)nc1` were greater than 100 µM and 56 µM. `O=C(NCCN1CCOCC1)c1cnccc1Cl`: the IC50 in experiment [1] amounted to 74 µM; in experiment [2], 0.75 µM. The compound `O=C(NCCN1CCOCC1)c1ccc(Cl)cc1` [MOCLOBEMIDE] displayed an IC50 in experiment [1] greater than 100 µM. As for `O=C(NCCCN1CCOCC1)c1cncc(Br)c1`, the IC50 in experiment [1] worked out at 65 µM; in experiment [2], 23 µM.

With `O=C(NCCCN1CCOCC1)c1ccc(Cl)nc1`, the IC50 stood at 75 µM in experiment [1] and 0.38 µM in experiment [2].

For `O=C(NCCCN1CCOCC1)c1cnc(Cl)c(Cl)c1`, the IC50 was determined as 45 µM in experiment [1] and 0.1 µM in experiment [2]. Taken in the same sequence, the figures for `O=C(NCCN1CCOCC1)c1cccnc1Br` were 0.32 µM and 8.5 µM. Taken in the same sequence, the figures for `O=C(NCCCN1CCOCC1)c1cccnc1Br` were 1.9 µM and 35 µM. Taken in the same sequence, the figures for `O=C(NCCN1CCOCC1)c1cncc(Br)c1` were 55 µM and 26 µM. Turning to `O=C(NCCN1CCOCC1)c1cccnc1O`, the IC50 in experiment [1] was greater than 100 µM; in experiment [2], 45 µM. Taken in the same sequence, the figures for `O=C(NCCCN1CCOCC1)c1c[nH]c(=O)c(Cl)c1` were 82 µM and 12 µM. `O=C(NCCCN1CCOCC1)c1ccc[nH]c1=O`: the IC50 in experiment [1] and in experiment [2] was greater than 100 µM in each case.

`O=C(NCCN1CCOCC1)c1cnc(Cl)c(Cl)c1`: the IC50 came out at 48 µM in experiment [1] and 0.084 µM in experiment [2].

Take `Cc1ccc(C(=O)NCCCN2CCOCC2)cn1`: the IC50 in experiment [1] and in experiment [2] was greater than 100 µM each time.
